The values that follow come from article PMC4930285 (Biomolecules & Therapeutics, 2016).

Experiment [1] addresses T1, α7 nicotinic acetylcholine receptor (α7 nAChR) (Homo sapiens, UniProt P36544). The experiment can be described thus: two-electrode voltage clamp in Xenopus oocytes. Type of experiment: cell-based. (In two-electrode clamp one electrode senses voltage and the other passes current.)
Experiment [2] deals with T1, α7 nicotinic acetylcholine receptor (α7 nAChR). The experiment can be described thus: two-electrode voltage clamp in Xenopus oocytes. Type of experiment: cell-based. The source holds these as a separate data set.

T1 sequence (P36544 23-502): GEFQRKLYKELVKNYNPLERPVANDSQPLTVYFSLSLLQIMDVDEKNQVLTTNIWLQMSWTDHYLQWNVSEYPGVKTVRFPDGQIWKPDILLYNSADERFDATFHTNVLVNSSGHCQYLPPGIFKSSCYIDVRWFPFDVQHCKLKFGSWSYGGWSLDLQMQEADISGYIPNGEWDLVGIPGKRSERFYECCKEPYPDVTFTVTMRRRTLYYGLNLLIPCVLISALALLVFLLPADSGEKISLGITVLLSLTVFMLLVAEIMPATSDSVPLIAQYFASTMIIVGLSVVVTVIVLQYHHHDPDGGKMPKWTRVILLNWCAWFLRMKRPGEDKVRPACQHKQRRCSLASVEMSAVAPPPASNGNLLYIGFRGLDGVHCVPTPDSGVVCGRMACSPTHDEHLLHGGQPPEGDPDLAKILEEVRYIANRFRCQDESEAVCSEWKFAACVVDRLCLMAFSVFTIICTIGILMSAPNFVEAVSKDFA

`O=c1c(O)c(-c2ccc(O)c(O)c2)oc2cc(O)cc(O)c12` [Que, quercetin] came in with an EC50 in experiment [1] of 35.1 ± 3.8 µM.
The compound `C[C@@H]1O[C@@H](OC[C@H]2O[C@@H](Oc3c(-c4ccc(O)c(O)c4)oc4cc(O)cc(O)c4c3=O)[C@H](O)[C@@H](O)[C@@H]2O)[C@H](O)[C@H](O)[C@H]1O` [Rutin, quercetin-3-O-rutinoside] returned an IC50 in experiment [2] of 70.4 ± 3.6 µM.

The EC50 is the concentration at which the effect is half-maximal. A lower EC50 goes with greater potency. For orientation: IC50 means the concentration at which inhibition is half-maximal. A low value points to greater potency in that assay.
